The values that follow come from patent US20240318141A1, “MATURATION AGENT” (Orizuru Therapeutics, Inc., priority 2021, published 2024).

Assay [1] has as its system non-endocrine cells in insulin-producing cell population (Ff-I14s04 iPS cell line). Briefly: Extended culture of insulin-producing cell population in basal medium containing EGF (Example 1). It counts as cell-based, human. An excerpt: (§1) The differentiation of a Ff-I14s04 iPS cell line into an insulin-producing cell population was induced by the three-dimensional culture method using a bioreactor and a multiwell plate according to steps 1) to 6) described above and the previous report (Nature Biotechnology 2014; 32: 1121-1133). Specifically, the iPS cells were subjected to the first culture in a medium (DMEM/1% B-27 (INS+)/Penicillin Streptomycin/dimethyl sulfoxide) containing differentiation-inducing factors (GSK3β inhibitor, ROCK inhibitor and low dose of activin A) under conditions causing action of insulin, and subsequently subjected to the second culture in a medium (DMEM/1% B-27 (INS−)/Penicillin Streptomycin/dimethyl sulfoxide) containing a differentiation-inducing factor (low dose of activin A) under conditions causing no action of insulin to obtain a definitive endoderm cell population. Further, a pancreatic endocrine progenitor cell population obtained by the induction of differentiation from the definitive endoderm cell population was cultured in a medium (Improved MEM/1% B-27 (INS+)/Penicillin Streptomycin) containing differentiation-inducing factors (ALK5 inhibitor II, T3, LDN, γ-secretase inhibitor RO, and ascorbic acid) and FGF receptor 1 inhibitor (PD-166866) to obtain an insulin-producing cell population. The exchange from the bioreactor to the multiwell plate was carried out in step 6).
The insulin-producing cell population was subjected to extended culture for 4 weeks in a basal medium (MCDB131/20 mM Glucose/NaHCO3/FAF-BSA/ITS-X/Glutamax/Penicillin Streptomycin). EGF, when added for the purpose of promoting the proliferation of unintended cells, was added at 50 ng/ml (final concentration) to the basal medium for culture.
Marker protein expression (PDX1 and CHGA) in the insulin-producing cell population before the start of and after the completion of extended culture was measured by flow cytometry. Respective samples were collected by sampling from separate culture containers. The number of cells was measured in an automatic cell counter at the time of sample preparation for flow cytometry, and the total number of cells per well of the multiwell plate was calculated. The number of CHGA-positive cells, the number of PDX1-positive and CHGA-negative cells, and the number of PDX1-negative and CHGA-negative cells were calculated from the obtained total number of cells and the flow cytometry results.

Assay [2] has as its system non-endocrine cells in insulin-producing cell population (QHJI-I14s04 iPS cell line). In words: Cisplatin or docetaxel treatment in step 6), then extended culture in basal medium containing EGF (Example 2). It counts as cell-based, human.
Text: as §1, with “QHJI-I14s04” for “Ff-I14s04”, “bioreactor” for “bioreactor and a multiwell plate”, “Y-secretase” for “γ-secretase”, “population.” for “population. The exchange from the bioreactor to the multiwell plate was carried out in step 6).”
An insulin-producing cell population obtained without the addition of cisplatin and docetaxel was used as a control cell population and subjected to extended culture in the same manner as above.
Marker protein expression (PDX1, CHGA, and Ki67) in each insulin-producing cell population before the start of and after the completion of extended culture was measured by flow cytometry. Samples after the completion of extended culture were collected by sampling three times from the same culture container. The number of cells was measured in an automatic cell counter at the time of sample preparation for flow cytometry, and the total number of cells per mL of the bioreactor was calculated. The number of CHGA-positive cells, the number of PDX1-positive and CHGA-negative cells, and the number of PDX1-negative and CHGA-negative cells were calculated from the obtained total number of cells and the flow cytometry results.

The test system of assay [3] is insulin-producing cell population (QHJI-114s04 iPS cell line). The note with it: induction of differentiation using medium supplemented with FGF receptor 1 inhibitor; see WO2019/208505; cited from earlier work.
[4] abbreviates: after extended culture 4 weeks, EGF present (50 ng/ml).
Setting [5] is: extended culture in basal medium containing EGF.
The mark [6] stands for this setting: after extended culture 4 weeks, EGF present, average of three samplings.
The mark [7] stands for this setting: after extended culture 4 weeks, EGF present, single samplings.
Where [8] appears, read: after extended culture involving EGF, with respect to control cell population.
[9] abbreviates: s6d11 (before extended culture); 3 μM cisplatin or 1 μM docetaxel for 7 days from day 4 of step 6).

“And” between values parts separate entries of the source, which are not always exact repeats. Equal values may be shown once.

As to “EGF: epidermal growth factor added at 50 ng/ml to basal medium to promote proliferation of unintended cells”, in assay [1] (setting [4]), the “The number of cells CHGA+” value is 128 ×10^4 cells/well and 123 ×10^4 cells/well; the “The number of cells PDX+/CHGA−” value is 27 ×10^4 cells/well and 32 ×10^4 cells/well; the “Total number of cells” value is 198 ×10^4 cells/well and 222 ×10^4 cells/well and 281 ×10^4 cells/well. Further, in assay [1] (setting [5]), the “number of CHGA-positive endocrine cells (in words)” value is reported as “no large change”; the “proportions of PDX1+/CHGA− and PDX1−/CHGA− non-endocrine cells” value is “markedly increased”; the “total number of cells after extended culture (in words)” value is reported as “increased”.

For `N.N.[Cl][Pt][Cl]` [Cisplatin, cisplatin], in assay [2] (setting [6]), the “The number of cells CHGA+, average” value is reported as 23 ×10^4 cells/mL; the “The number of cells PDX+/CHGA−, average” value is given as 97 ×10^4 cells/mL; the “The number of cells PDX−/CHGA−, average” value is 5.4 ×10^4 cells/mL; the “Total number of cells, average” value is reported as 125 ×10^4 cells/mL. In addition, in assay [2] (setting [7]), the “The number of cells CHGA+” value is 24 ×10^4 cells/mL and 21 ×10^4 cells/mL; the “The number of cells PDX+/CHGA−” value is 97 ×10^4 cells/mL and 84 ×10^4 cells/mL and 110 ×10^4 cells/mL; the “The number of cells PDX−/CHGA−” value was 4.5 ×10^4 cells/mL and 4.4 ×10^4 cells/mL and 7.2 ×10^4 cells/mL; the “Total number of cells” value was 125 ×10^4 cells/mL and 109 ×10^4 cells/mL and 141 ×10^4 cells/mL. In assay [2] (setting [8]), the “proportion of PDX1-negative and CHGA-negative (PDX1−/CHGA−) cells” value is listed as “drastically decreased”; the “proportion of PDX1-positive and CHGA-negative (PDX1+/CHGA−) cells” value is recorded as “no large change”. Besides, the “total number of cells after extended culture (in words)” value in assay [2] (extended culture involving EGF) is “increased”. Besides, in assay [2] (setting [9]), the “The number of cells CHGA+” value is listed as 88 ×10^4 cells/mL, the “The number of cells PDX+/CHGA−” value is 2.7 ×10^4 cells/mL, the “The number of cells PDX−/CHGA−” value was 0.3 ×10^4 cells/mL and the “Total number of cells” value is given as 91 ×10^4 cells/mL. Moreover, the “number of CHGA-positive endocrine cells after extended culture (in words)” value in assay [2] (with respect to control cell population) is on record as “not changed”.

Consider `COc1cc(OC)cc(-c2cc3cnc(N)nc3nc2NC(=O)NC(C)(C)C)c1` [PD-166866, 1-[2-amino-6-(3,5-dimethoxyphenyl)-pyrido(2,3-d)pyrimidin-7-yl]-3-tert-butylurea], for which the “abundance of CHGA-negative and Ki67-positive (CHGA−/Ki67+) cells (in words)” value in assay [3] is recorded as “drastically reduced”.
